Source: patent US8513232B2, “Substituted spirocyclic piperidine derivatives as histamine-3 (H3) receptor ligands” (Cephalon, Inc., priority 2008, dated 2013)
Structures can show the parent of a compound that is named as a salt. Where two headings read alike, the source gives them in different places.

Assays:
[1] = molecular target: T1, human H3 receptor (Homo sapiens, UniProt Q9Y5N1); experiment: Human H3 radioligand binding ([3H]-N-alpha-methylhistamine, SPA)
T1 construct: expressed in transfected cells
T1 sequence (Q9Y5N1 whole entry): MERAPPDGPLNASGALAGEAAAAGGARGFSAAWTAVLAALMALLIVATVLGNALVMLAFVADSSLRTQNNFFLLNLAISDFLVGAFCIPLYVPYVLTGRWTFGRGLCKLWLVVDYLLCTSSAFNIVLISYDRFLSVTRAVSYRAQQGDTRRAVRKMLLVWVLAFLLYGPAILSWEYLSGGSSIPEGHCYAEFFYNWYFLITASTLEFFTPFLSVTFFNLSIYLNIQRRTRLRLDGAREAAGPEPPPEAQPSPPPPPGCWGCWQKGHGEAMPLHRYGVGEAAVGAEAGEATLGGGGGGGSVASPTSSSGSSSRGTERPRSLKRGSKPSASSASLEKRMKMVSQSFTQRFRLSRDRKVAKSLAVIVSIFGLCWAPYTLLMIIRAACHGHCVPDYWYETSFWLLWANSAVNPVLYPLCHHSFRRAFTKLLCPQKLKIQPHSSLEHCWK
Description: (§1) Methods: CHO cells stably expressing the human H3 receptor (GenBank: NM_007232) were harvested and cell pellets were frozen (−80° C.). Cell pellets were resuspended in 5 mM Tris-HCl, pH 7.5 with […] and a cocktail of protease inhibitors (Complete Protease Inhibitior Tablets, Roche Diagnostics). Cells were disrupted using a polytron cell homogenizer and the suspension was centrifuged at 1000×g for 10 minutes at 4° C. The pellet was discarded and the supernatant centrifuged at 40,000×g for 30 min at 4° C. This membrane pellet was washed in membrane buffer containing 50 mM Tris-HCl, pH 7.5 with 0.6 mM EDTA, 5 mM MgCl2 and protease inhibitors, recentrifuged as above and the final pellet resuspended in membrane buffer plus 250 mM sucrose and frozen at −80° C.
(§2) Radioligand Binding. Membranes were resuspended in 50 mM Tris HCl (pH 7.4), 5 mM MgCl2, 0.1% BSA. The membrane suspensions (10 μg protein per well) were incubated in a 96 well microtiter plate with [^3H]-N-alpha-methylhistamine (approximately 1 nM final concentration), test compounds at various concentrations (0.01 nM-30 μM) and scintillation proximity beads (Perkin Elmer, FlashBlueGPCR Scintillating Beads) in a final volume of 80 μl for 4 hours at room temperature, protected from light. Non-specific binding was determined in the presence of 10 μM clobenpropit. Radioligand bound to receptor, and therefore in proximity to the scintillation beads, was measured using a MicroBeta scintillation counter.

[2] = molecular target: T2, rat histamine H3 receptor (Rattus norvegicus, UniProt Q9QYN8); experiment: Rat H3 radioligand binding ([3H]-N-alpha-methylhistamine, SPA)
T2 construct: encoding the entire 445-amino-acid rat histamine H3 receptor; expressed in transfected cells; membrane preparation
T2 sequence (Q9QYN8 whole entry): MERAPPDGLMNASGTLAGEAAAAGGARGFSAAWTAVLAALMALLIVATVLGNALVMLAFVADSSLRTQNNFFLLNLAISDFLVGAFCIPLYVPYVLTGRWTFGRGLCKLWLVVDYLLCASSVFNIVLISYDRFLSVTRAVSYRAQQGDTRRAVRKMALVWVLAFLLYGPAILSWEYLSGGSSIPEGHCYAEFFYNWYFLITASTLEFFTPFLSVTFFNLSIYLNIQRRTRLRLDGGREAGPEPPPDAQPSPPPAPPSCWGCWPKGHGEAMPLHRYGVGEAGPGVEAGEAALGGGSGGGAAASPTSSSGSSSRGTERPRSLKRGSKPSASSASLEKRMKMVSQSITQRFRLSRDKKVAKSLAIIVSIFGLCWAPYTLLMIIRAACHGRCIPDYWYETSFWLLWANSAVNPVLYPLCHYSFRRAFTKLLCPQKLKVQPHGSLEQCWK
Text: as §1, with “Cell line development and membrane preparation. The rat” for “Methods: CHO cells stably expressing the human”, “cDNA was PCR amplified from reverse-transcribed RNA pooled from rat thalamus, hypothalamus, striatum and prefrontal cortex with a sequence corresponding to by #338-1672 of Genbank file #NM_053506, encoding the entire 445-amino-acid rat histamine H3 receptor. This was engineered into the pIRES-neo3 mammalian expression vector, which was stably transfected into the CHO-A3 cell line (Euroscreen, Belgium), followed by clonal selection by limiting dilution. Cells” for “(GenBank: NM_007232)”
as §2

[3] = Table C, human H3 binding, read-out: Human H3 Ki
[4] = Table C, rat H3 binding, read-out: Rat H3 Ki
[5] = Human H3 binding, Table B, Examples 136-362, read-out: hum H3 binding Ki
[6] = Rat H3 binding, Table B, Examples 136-362, read-out: rat H3 binding Ki
[7] = Table A, human H3 binding, read-out: Human Ki
[8] = Table A, rat H3 binding, read-out: Rat Ki
[9] = human H3 binding, Table D, read-out: Human H3 Ki
[10] = rat H3 binding, Table D, read-out: Rat H3 Ki

SMILES: c1ccc(Oc2ccc3c(c2)COC2(CCN(C4CCC4)CC2)O3)cc1 (as salt: HCl) [Example 131]
- melting point: 240 to 245 °C

SMILES: Cc1nc(C)c(-c2ccc3c(c2)COC2(CCN(C4CCC4)CC2)O3)s1 (as salt: HCl) [Example 70]
- melting point: 225 to 227 °C

SMILES: CC(C)CN1CC(c2ccc3c(c2)COC2(CCN(C4CCC4)CC2)O3)CCC1=O (centres unmarked) (as salt: HCl) [Example 564]
- melting point: 98 to 103 °C

SMILES: CN(C)C(=O)c1ccc(N2CCN(c3ccc4c(c3)CCC3(CCN(C5CCC5)CC3)O4)CC2)nc1 [Example 410]
- Ki [1, 3]: < 200 nM
- Ki [2, 4]: < 200 nM

SMILES: CNC(=O)c1ccc(-c2ccc3c(c2)COC2(CCN(C4CCC4)CC2)O3)cc1C#N [Example 179]
- Ki [1, 5]: < 200 nM
- Ki [2, 6]: < 200 nM

SMILES: Cc1cc(-c2ccc3c(c2)COC2(CCN(C4CCC4)CC2)O3)cnc1OCc1ccccc1 [Example 549]
- Ki ([1]; read-out: Human H3 Ki): 200 to 1000 nM
- Ki ([2]; read-out: Rat H3 kI): > 1000 nM

SMILES: O=S(=O)(c1ccc(-c2ccc3c(c2)COC2(CCN(C4CCC4)CC2)O3)cc1)N1CCOCC1 [Example 17]
- Ki [1, 7]: < 200 nM
- Ki [2, 8]: < 200 nM

SMILES: NS(=O)(=O)c1ccc(-c2ccc3c(c2)CCC2(CCN(C4CCC4)CC2)O3)cc1 [Example 116]
- Ki [1, 7]: < 200 nM
- Ki [2, 8]: < 200 nM

SMILES: O=C(c1ccc(-c2ccc3c(c2)OC2(CCN(C4CCC4)CC2)O3)cc1)N1CCOCC1 [Example 89]
- Ki [1, 7]: < 200 nM
- Ki [2, 8]: < 200 nM

SMILES: c1cc2c(cc1N1CCOCC1)COC1(CCN(C3CCC3)CC1)O2 [Example 214]
- Ki [1, 5]: < 200 nM
- Ki [2, 6]: < 200 nM

SMILES: c1cc2c(cc1OC1CCSCC1)CCC1(CCN(C3CCC3)CC1)O2 [Example 457]
- Ki ([1]; read-out: Human H3 Ki): < 200 nM
- Ki ([2]; read-out: Rat H3 kI): < 200 nM

SMILES: c1cc(-c2ccc3c(c2)COC2(CCN(C4CCC4)CC2)O3)ccn1 [Example 10]
- Ki [1, 7]: < 200 nM
- Ki [2, 8]: < 200 nM

SMILES: O=S1(=O)CCC(COc2ccc3c(c2)CCC2(CCN(C4CCC4)CC2)O3)CC1 [Example 500]
- Ki ([1]; read-out: Human H3 Ki): < 200 nM
- Ki ([2]; read-out: Rat H3 kI): < 200 nM

SMILES: c1cc2c(cc1-c1ccc3c(c1)COC1(CCN(C4CCC4)CC1)O3)CCO2 [Example 2]
- Ki [1, 7]: < 200 nM
- Ki [2, 8]: < 200 nM

SMILES: CN(C)c1ncc(-c2ccc3c(c2)CCC2(CCN(C4CCC4)CC2)O3)cn1 [Example 108]
- Ki [1, 7]: < 200 nM
- Ki [2, 8]: < 200 nM

SMILES: O=S(=O)(NC1CC1)c1ccc(-c2ccc3c(c2)COC2(CCN(C4CCC4)CC2)O3)cc1 [Example 25]
- Ki [1, 7]: < 200 nM
- Ki [2, 8]: < 200 nM

SMILES: O=C(NC1CC1)c1ccc(-c2ccc3c(c2)CCC2(CCN(C4CCC4)CC2)O3)cc1 [Example 109]
- Ki [1, 7]: < 200 nM
- Ki [2, 8]: < 200 nM

SMILES: c1cc2c(cc1-c1ccc3nonc3c1)CCC1(CCN(C3CCC3)CC1)O2 [Example 112]
- Ki [1, 7]: < 200 nM
- Ki [2, 8]: < 200 nM

SMILES: O=C(c1ccc(-c2ccc3c(c2)COC2(CCN(C4CCC4)CC2)O3)cc1)N1CCOCC1 [Example 9]
- Ki [1, 7]: < 200 nM
- Ki [2, 8]: < 200 nM

SMILES: NC(=O)c1ccc(-c2ccc3c(c2)COC2(CCN(C4CCC4)CC2)O3)cc1 [Example 18]
- Ki [1, 7]: < 200 nM
- Ki [2, 8]: < 200 nM

SMILES: CNC(=O)c1ccc(-c2ccc3c(c2)CCC2(CCN(C4CCC4)CC2)O3)cc1 [Example 106]
- Ki [1, 7]: < 200 nM
- Ki [2, 8]: < 200 nM

SMILES: CS(=O)(=O)N1CCC(Oc2ccc3c(c2)CCC2(CCN(C4CCC4)CC2)O3)CC1 [Example 408]
- Ki [1, 3]: < 200 nM
- Ki [2, 4]: < 200 nM

SMILES: CCOc1ccc(-c2ccc3c(c2)COC2(CCN(C4CCC4)CC2)O3)cn1 [Example 11]
- Ki [1, 7]: < 200 nM
- Ki [2, 8]: < 200 nM

SMILES: N#Cc1ccc(Oc2ccc3c(c2)COC2(CCN(C4CCC4)CC2)O3)cc1 [Example 132]
- Ki [1, 7]: < 200 nM
- Ki [2, 8]: < 200 nM

SMILES: O=C(c1ccc(-c2ccc3c(c2)COC2(CCN(C4CCC4)CC2)O3)cc1)N1CCCC1 [Example 8]
- Ki [1, 7]: < 200 nM
- Ki [2, 8]: < 200 nM

SMILES: COC1CCN(c2ccc3c(c2)CCC2(CCN(C4CCC4)CC2)O3)CC1 [Example 380]
- Ki [1, 3]: < 200 nM
- Ki [2, 4]: < 200 nM

SMILES: O=C(c1cccc(-c2ccc3c(c2)OC2(CCN(C4CCC4)CC2)OC3)c1)N1CCCC1 [Example 94]
- Ki [1, 7]: 200 to 1000 nM
- Ki [2, 8]: 200 to 1000 nM

SMILES: CC(C)Cn1cc(-c2ccc3c(c2)COC2(CCN(C4CCC4)CC2)O3)ccc1=O (as salt: HCl) [Example 562]
- melting point: 182 to 190 °C

SMILES: c1cc(-c2ccc3c(c2)COC2(CCN(C4CCC4)CC2)O3)cs1 [Example 13]
- Ki [1, 7]: < 200 nM
- Ki [2, 8]: < 200 nM

SMILES: CCNC(=O)C1CC=C(c2ccc3c(c2)COC2(CCN(C4CCC4)CC2)O3)CC1 (centres unmarked) [Example 523]
- Ki ([1]; read-out: Human H3 Ki): < 200 nM
- Ki ([2]; read-out: Rat H3 kI): < 200 nM

SMILES: NC(=O)c1c(F)cc(-c2ccc3c(c2)CCC2(CCN(C4CCC4)CC2)O3)cc1F [Example 340]
- Ki [1, 5]: < 200 nM
- Ki [2, 6]: < 200 nM

SMILES: Cn1cc(-c2ccc3c(c2)CCC2(CCN(C4CCC4)CC2)O3)cn1 [Example 111]
- Ki [1, 7]: < 200 nM
- Ki [2, 8]: < 200 nM

SMILES: N#Cc1cccc(-c2ccc3c(c2)OC2(CCN(C4CCC4)CC2)O3)c1 [Example 92]
- Ki [1, 7]: 200 to 1000 nM
- Ki [2, 8]: > 1000 nM

SMILES: c1cc2c(cc1OC[C@H]1CCCO1)CCC1(CCN(C3CCC3)CC1)O2 [Example 464]
- Ki ([1]; read-out: Human H3 Ki): < 200 nM
- Ki ([2]; read-out: Rat H3 kI): < 200 nM

SMILES: OCc1ccc(-c2ccc3c(c2)CCC2(CCN(C4CCC4)CC2)O3)cc1 [Example 117]
- Ki [1, 7]: < 200 nM
- Ki [2, 8]: < 200 nM

SMILES: Fc1ncccc1-c1ccc2c(c1)CCC1(CCN(C3CCC3)CC1)O2 [Example 118]
- Ki [1, 7]: < 200 nM
- Ki [2, 8]: < 200 nM

SMILES: c1cncc(-c2ccc3c(c2)COC2(CCN(C4CCC4)CC2)O3)c1 [Example 7]
- Ki [1, 7]: < 200 nM
- Ki [2, 8]: < 200 nM

SMILES: c1csc(Cc2ccc3c(c2)COC2(CCN(C4CCC4)CC2)O3)n1 [Example 696]
- Ki [1, 9]: < 200 nM
- Ki [2, 10]: < 200 nM

SMILES: c1nc(Cc2ccc3c(c2)COC2(CCN(C4CCC4)CC2)O3)cs1 [Example 701]
- Ki [1, 9]: < 200 nM
- Ki [2, 10]: < 200 nM

SMILES: O=C(c1ccncc1)N1CCN(c2ccc3c(c2)COC2(CCN(C4CCC4)CC2)O3)C(=O)C1 [Example 741]
- Ki [1, 9]: < 200 nM
- Ki [2, 10]: < 200 nM

SMILES: CS(=O)(=O)c1ccc(-c2ccc3c(c2)COC2(CCN(C4CCC4)CC2)O3)cc1 [Example 21]
- Ki [1, 7]: < 200 nM
- Ki [2, 8]: < 200 nM

SMILES: O=S(=O)(c1ccc(-c2ccc3c(c2)COC2(CCN(C4CCC4)CC2)O3)cc1)N1CCC1 [Example 24]
- Ki [1, 7]: < 200 nM
- Ki [2, 8]: < 200 nM

SMILES: NC(=O)c1ccc(-c2ccc3c(c2)CCC2(CCN(C4CCC4)CC2)O3)cc1 [Example 113]
- Ki [1, 7]: < 200 nM
- Ki [2, 8]: < 200 nM

SMILES: CCNC(=O)C1CCC(c2ccc3c(c2)COC2(CCN(C4CCC4)CC2)O3)CC1 (centres unmarked) [Example 524]
- Ki ([1]; read-out: Human H3 Ki): < 200 nM
- Ki ([2]; read-out: Rat H3 kI): < 200 nM

SMILES: N#Cc1ccc(-c2ccc3c(c2)OC2(CCN(C4CCC4)CC2)O3)cc1 [Example 88]
- Ki [1, 7]: 200 to 1000 nM
- Ki [2, 8]: < 200 nM

SMILES: N#Cc1ccc(-c2ccc3c(c2)COC2(CCN(C4CCC4)CC2)O3)cc1 [Example 3]
- Ki [1, 7]: < 200 nM
- Ki [2, 8]: < 200 nM

SMILES: NC(=O)c1ccc(N2CCN(c3ccc4c(c3)CCC3(CCN(C5CCC5)CC3)O4)CC2)nc1 [Example 379]
- Ki [1, 3]: < 200 nM
- Ki [2, 4]: < 200 nM

SMILES: COC1(c2ccc3c(c2)COC2(CCN(C4CCC4)CC2)O3)CCC(C(F)(F)F)CC1 (centres unmarked) [Example 568]
- Ki ([1]; read-out: Human H3 Ki): < 200 nM
- Ki ([2]; read-out: Rat H3 kI): < 200 nM

SMILES: CC(C)Cn1cc(-c2ccc3c(c2)COC2(CCN(C4CCC4)CC2)O3)ccc1=O [Example 562]
- Ki ([1]; read-out: Human H3 Ki): < 200 nM
- Ki ([2]; read-out: Rat H3 kI): < 200 nM

SMILES: c1cnc(-c2ccc3c(c2)CCC2(CCN(C4CCC4)CC2)O3)cn1 [Example 145]
- Ki [1, 5]: < 200 nM
- Ki [2, 6]: < 200 nM

SMILES: COCCN(C)C(=O)c1ccc(-c2ccc3c(c2)CCC2(CCN(C4CCC4)CC2)O3)cc1F [Example 294]
- Ki [1, 5]: < 200 nM
- Ki [2, 6]: < 200 nM
